Tests used:
[1] = tested on: tyrosine kinase (HT 29 cells); assay: Assay of the tyrosine kinase activity, HT 29 cells; assay type: cell-based, human
Description: The tyrosine kinase activity was also determined according to the method of Keri et al. [Tumor Biology 9, 315 (1988)]. The activity of the analogues was characterized on the basis of their inhibitory effect in comparison to the incorporation of ^32 p isotope to untreated cells used as control (Table IV).

[2] = tested on: rat hypophysis (GH release); assay: Assay of the growth hormone (GH): GHRH-elicited GH release, superfusion method; assay type: cell-based; settings: percentage of decrease (-) or increase (+) in GH amount released by GHRH
Description: The release or inhibition, respectively, of the release of GH were measured on rat hypophysis by using the superfusion method [Vigh et al.: Peptides 5, 241 (1984)]. As control, the GH amount was considered which was released by the GH releasing hormone (GHRH) given in the same dose as the sample. The activity of the somatostatin analogue was expressed as the percentage of decrease or increase, respectively, in the GH amount released by GHRH (Table II).

[3] = tested on: MCF 7: tumour cell line of human breast origin; assay: Assay of the inhibition of cell division, MCF 7; assay type: cell-based
Description: (§1) The incorporation of [^3 H]-thymidine to tumour cells of various origin and measurement of the cell count were carried out according to the method of Keri et al. [Tumor Biology 9, 315 (1988)]. The biological activity of the analogues was expressed as the percentage of inhibition of the labelled thymidine incorporation or increase in the count of untreated cells used as control (Table III).

[4] = tested on: HT 29: tumour cell line of human colon origin; assay: Assay of the inhibition of cell division, HT 29; assay type: cell-based
Description: as §1

| Substance | Inhibition (%) of tyrosine kinase activity ([1]; HT 29, dose 10 μg) [%] | Inhibition (%) of tyrosine kinase activity ([1]; HT 29, dose 30 μg) [%] | Change of GH release [2] | Inhibition (%) of cell division ([3]; MCF 7, dose 20 μg) [%] | Inhibition (%) of cell division ([4]; HT 29, dose 10 μg) [%] | Inhibition (%) of tyrosine kinase activity ([1]; HT 29, dose 1 μg, 32P incorporation vs untreated cells) [%] | Inhibition (%) of cell division ([4]; HT 29, dose 20 μg) [%] | Inhibition (%) of cell division ([3]; MCF 7, dose 40 μg) [%] |
| --- | --- | --- | --- | --- | --- | --- | --- | --- |
| Ac-Sar-Ala-Tyr-Tyr-Aa-Lys-Val-Phe-Trp-NH2 [Example 7] | 17 | 23 | -20% | 24 | 28 | – | – | – |
| D-Phe-Cys-Tyr-D-Trp-Lys-Val-Cys-Thr-NH2 [Example 2] | 22 | – | -93% | 45 | – | 35 | 27 | – |
| D-Phe-Tyr-Tyr-Aa-Lys-Val-Phe-Trp-NH2 [Example 6] | – | – | +26% | – | – | – | – | 48 |
